{"source": "patent US8012983B2", "about": "“Substituted triazolopyrazines useful for the treatment of degenerative and inflammatory diseases” (Galapagos NV, priority 2008, dated 2011)", "key": {"[1]": {"system": "MMP1 expression by activated synovial fibroblasts (RASFs)", "assay": "'MMP assay': complex trigger-induced MMP1 expression by synovial fibroblasts (MMP1 ELISA)", "type": "cell-based", "conditions": "Homo sapiens, Fibroblast; complex trigger activated SFs, 48 hrs, FIG. 3; read-out: IC50 value, reduction of MMP1 expression by SFs", "protocol": "A 384-well format ELISA for measurement of MMP1 is developed. Various primary antibodies are tested, as well as various ELISA protocols. The following protocol is developed and validated to measure MMP1 levels in SF supernatant in 384 well plates: white Lumitrac 600 384 well plates (Greiner) are coated with 2 μg/mL anti-MMP1 antibody MAB1346 (Chemicon). The antibody is diluted in buffer 40 (1.21 g Tris base (Sigma), 0.58 g NaCl (Calbiochem) and 5 ml 10% NaN3 (Sigma) in 1 L milliQ water and adjusted to pH 8.5). After overnight incubation at 4° C., plates are washed with PBS (80 g NaCl, 2 g KCl (Sigma), 11.5 g Na2HPO4.7H2O and 2 g KH2PO4 in 10 L milliQ; pH 7.4) and blocked with 100 μL/well Casein buffer (2% Casein (VWR International) in PBS). Next day, casein buffer is removed from ELISA plates and replaced by 50 μL/well EC buffer (4 g casein, 2.13 g Na2HPO4 (Sigma), 2 g bovine albumin (Sigma), 0.69 g NaH2PO4.H2O (Sigma), 0.5 g CHAPS (Roche), 23.3 g NaCl, 4 ml 0,5 M EDTA pH 8 (Invitrogen), 5 ml 10% NaN3 in 1 L milliQ and adjusted to pH 7.0). 0.25 mM DTT (Sigma) is added to the thawed samples plates. After removal of the EC buffer, 20 μL of sample is transferred to the ELISA plates. After overnight incubation at 4° C. plates are washed twice with PBS and once with PBST (PBS with 0.05% Tween-20 (Sigma)) and incubated with 35 μL/well biotinylated anti-MMP1 antibody solution (R&D). This secondary antibody is diluted in buffer C (0.82 g NaH2PO4.H2O, 4.82 g Na2HPO4, 46.6 g NaCl, 20 g bovine albumin and 4 mL 0,5M EDTA pH 8 in 2 L milliQ and adjusted to pH 7.0) at a concentration of 5 μg/mL. After 2 h of incubation at RT, plates are washed as described above and incubated with 50 μL/well streptavidin-HRP conjugate (Biosource). Streptavidin-HRP conjugate is diluted in buffer C at a concentration of 0.25 μg/mL. After 45 min, plates are washed as described above and incubated for 5 min with 50 μL/well BM Chem ELISA Substrate (Roche). Readout is performed on the Luminoscan Ascent Luminometer (Labsystems) with an integration time of 200 msec or with an Envision reader (Perkin Elmer).\nThe increase of MMP1 expression by SFs upon treatment with cytokines relevant in the field of RA (TNF-α, IL1β and OSM) or a combination thereof is shown in FIG. 2 as white bars. For this experiment, SFs are seeded in 96 well plates, 3,000 cells/well. 24 h later, the medium is changed to M199 medium supplemented with 1% FBS. One day after the medium change, cytokines or combinations thereof are added to the cultures, each cytokine being added to a final concentration of 25 ng/mL. 72 h after cytokine addition, the supernatant is collected and processed in the MMP1 ELISA as described in the protocol given above. In parallel with this experiment, SFs are triggered, using the same protocol, with the supernatant of THP1 cells (2-fold diluted in M199+1% FBS) treated with the same cytokines or combinations of cytokines for 48 h in M199 medium+1% FBS. The induction of the MMP1 expression by SFs triggered with the supernatants of TNF-α-treated THP1 cells is stronger (>4.5 fold induction) as compared to the SFs triggered with recombinant TNF-α alone (3-fold induction) and almost equals the 5-fold induction obtained by a mixture of 3 purified cytokines (TNF-α, IL1βb, OSM). […] As the role of TNF-α in the RA pathogenesis is validated (TNF-α-blockers such as Infliximab and Etanercept show some efficacy in the treatment of RA patients) and the THP-1 cells are representative for monocytes/macrophages present in the joint of RA patients, the TNF-α-based trigger mixture prepared by contacting THP-1 cells with TNF-α will contain factors present in the joints of RA patients and subsequently is relevant to RA. This TNF-α-based complex trigger, further referred to as the ‘complex trigger’, will further be used as basis for the ‘MMP assay’. […]"}, "[2]": {"system": "TNF alpha", "assay": "Septic shock model (LPS-induced TNF release)", "type": "in vivo, BALB/cJ female mice", "conditions": "after injection of LPS, benchmark, FIG. 7", "description": "Six BALB/cJ female mice (20 g) per group are treated at the intended dosing once, po. Thirty minutes later, LPS (15 μg/kg; E. coli serotype 0111:B4) is injected ip. Ninety minutes later, mice are euthanized and blood is collected. Circulating TNF alpha levels are determined using commercially available ELISA kits. Dexamethasone (5 μg/kg) is used as a reference anti-inflammatory compound."}}}
{"smiles": "C[C@@H]1C[C@H]2[C@@H]3CCC4=CC(=O)C=C[C@]4(C)[C@@]3(F)[C@@H](O)C[C@]2(C)[C@@]1(O)C(=O)CO", "note": "[dexamethasone, reference compound]", "values": [{"measurement": "IC50", "setting": "[1]", "value": "~1", "unit": "nM"}, {"measurement": "percentage inhibition of TNF alpha release", "setting": "[2]", "value": 100, "unit": "%"}]}
